{"source": "paper PMC6224480", "about": "“Insights into Kinesin-1 Activation from the Crystal Structure of KLC2 Bound to JIP3” (Structure(London, England:1993), 2018)", "key": {"KLC2^TPR-myc": {"target": "T1, KLC2^TPR-myc (Mus musculus, UniProt O88448)", "T1 construct": "comprised murine KLC2 residues 191-480; His6-SUMO (N, cleaved yes); made in house; host or cells: E. coli BL21(DE3) Rosetta", "T1 sequence (O88448 191-480)": "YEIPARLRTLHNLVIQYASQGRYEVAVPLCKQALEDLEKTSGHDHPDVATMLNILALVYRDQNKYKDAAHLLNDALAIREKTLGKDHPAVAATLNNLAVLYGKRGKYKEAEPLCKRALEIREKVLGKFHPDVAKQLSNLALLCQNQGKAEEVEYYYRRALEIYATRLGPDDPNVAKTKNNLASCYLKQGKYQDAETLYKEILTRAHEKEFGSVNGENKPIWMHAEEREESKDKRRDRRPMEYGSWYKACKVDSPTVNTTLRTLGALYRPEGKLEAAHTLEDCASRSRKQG", "experiment": "Fluorescence anisotropy-based binding competition against FITC-LFP motif peptide", "set-up": "species or system murine", "details": "FITC-LFP peptide 300 nM, KLC2^TPR-myc 21 μM, Trp-JIP3^LZ two independent experiments, CSTN-WD1 one experiment", "excerpt": "Kinesin-1 activation by JIP3 requires JIP3^LZ binding to KLC^TPR ([Watt et al., 2015]). How does JIP3^LZ binding to the KLC^TPR relieve KLC regulation of the kinesin-1 molecule? Tryptophan-acidic cargoes activate kinesin-1 by releasing the KLC LFP motif from the KLC^TPR ([Yip et al., 2016]). […] We therefore wondered whether JIP3^LZ binding to the KLC2^TPR allosterically regulates interactions between KLC2^TPR and the LFP motif. We investigated this using an in vitro, fluorescence anisotropy-based binding competition assay with purified proteins and peptides ([Yip et al., 2016]). […] Thus, JIP3 activates kinesin-1 by a different mechanism to tryptophan-acidic cargoes.\nThe binding affinity between the FITC-labelled LFP-motif peptide and the KLC2^TPR-myc was measured essentially as described previously ([Yip et al., 2016]). FITC-labelled LFP motif peptide (300 nM) was incubated with 2-fold dilutions of KLC2^TPR-myc in assay buffer (0.1 M NaCl, 25 mM HEPES, 5 mM MgCl2, 1 mM TCEP, final pH 7.5) in triplicate in 384-well plates, for 1 hour at room temperature. Fluorescence measurements were recorded on a TecanSpark plate reader at excitation and emission wavelengths of 488 nm and 535 nm respectively. Fluorescence anisotropy values were calculated at each KLC2^TPR-myc concentration and the data were fitted with a fixed-slope dose response curve in Prism (GraphPad). […]"}, "KLC2 L220Y mutant": {"test_system": "KLC2 L220Y mutant", "experiment": "ITC of FITC-CSTN-WD2 peptide into L220Y KLC2^TPR-myc", "assay_type": "binding, murine", "details": "25°C, 0.1 M NaCl, n = 2", "description": "(§1) The Trp-JIP3^LZ protein used for CD and ITC experiments was prepared as described above for the JIP3^LZ, with the following modifications. Following 3C cleavage, contaminating GST3C was removed by incubation of the eluate with fresh, pre-equilibrated glutathione sepharose 4B resin for 2 hours at room temperature. The Trp-JIP3^LZ was then further purified by size exclusion chromatography using a Superdex 75 16/600 column equilibrated in 100 mM NaCl, 25 mM HEPES, 1 mM TCEP (final pH 7.5). Wild-type/mutant KLC2^TPR-myc samples used for CD and ITC experiments were prepared as described above the KLC2^TPR used in crystallographic studies. The Trp-JIP3^LZ and KLC2^TPR-myc samples used in the fluorescence anisotropy-based binding competition assays were prepared as for those used in the CD and ITC studies, but the final size-exclusion step was performed in 100 mM NaCl, 25 mM HEPES, 5mM MgCl2, 1 mM TCEP (final pH 7.5).\n(§2) To study binding of the Trp-JIP3^LZ and FITC-CSTN-WD2 peptide to wild-type and mutant KLC2^TPR-myc, the recombinant proteins were prepared by size exclusion chromatography in 0.1 M NaCl, 25 mM HEPES, 1 mM TCEP, final pH 7.5. Wild-type or mutant KLC2^TPR-myc at 44-50 μM were placed in the cell. The Trp-JIP3^LZ was used as the titrant at dimer concentrations of 297-330 μM. […] The peptide concentration was determined by measuring the absorbance at 483 nm and using a molar extinction coefficient of 68,000 M^-1cm^-1. […] The resulting isotherms were analysed in SEDPHAT. Data for the Trp-JIP3^LZ as titrant were fitted with the A + B + B → AB + B → ABB model, whilst binding of the FITC-CSTN-WD2 peptide was analysed using the A + B → AB model. […] During fitting, the FITC-CSTN-WD2 peptide concentrations consistently refined to values around 30% greater than the measured value of 380 μM, with Napp values around 0.7 (Table S2). We ascribe this to an under-quantification of the FITC-CSTN-WD2 peptide concentration since the peptide contains a single tryptophan-acidic motif, and the concentration values for experiments with Trp-JIP3^LZ as ligand refined close to their measured values."}, "[1]": {"test_system": "wild-type and mutant KLC2^TPR-myc", "experiment": "ITC with wild-type and/or TPR1-mutant KLC2^TPR-myc (collective statements)", "assay_type": "binding, murine", "description": "as §1\nTo study binding of the Trp-JIP3^LZ and FITC-CSTN-WD2 peptide to wild-type and mutant KLC2^TPR-myc, the recombinant proteins were prepared by size exclusion chromatography in 0.1 M NaCl, 25 mM HEPES, 1 mM TCEP, final pH 7.5. […] The peptide concentration was determined by measuring the absorbance at 483 nm and using a molar extinction coefficient of 68,000 M^-1cm^-1. […] The resulting isotherms were analysed in SEDPHAT. […]"}, "[2]": {"test_system": "KLC2^TPR-myc Tyr^208Ala (Y208A)", "experiment": "ITC of FITC-CSTN-WD2 peptide into Y208A KLC2^TPR-myc", "assay_type": "binding, murine", "details": "n = 2", "excerpt": "(§3) The KLC2^TPR construct used in this work comprised murine KLC2 residues 191-480, which is similar to those used in previous studies ([Nguyen et al., 2017], [Zhu et al., 2012]) but with a slightly longer N-terminal region to include residues 191-194, which are very highly conserved in Bilaterian KLCs. To construct the pMW-His6-SUMO-KLC2^TPR vector, the sequence encoding KLC2^TPR (residues 191-480) was amplified by PCR from a murine template ([Dodding et al., 2011]) and cloned into the NotI/EcoRI sites of pMW his-SUMO. The His6-SUMO- KLC2^TPR-myc vectors were constructed likewise, but using a reverse primer sequence encoding the KLC^TPR C-terminal region up to residue 480, a BglII site, and an in-frame myc-tag sequence, thus fusing the amino acid sequence […] to the KLC2^TPR C-terminus. KLC2^TPR-myc mutants (Thr^200Asp, Tyr^208Ala, Gln^223Lys and Arg^312Glu) were generated by overlap PCR.\nas §1, with “Wild-type/mutant KLC2^TPR-myc samples used for CD and ITC experiments were prepared as described above the KLC2^TPR used in crystallographic studies.” left out\nas §2, with “7.5.” for “7.5. Wild-type or mutant KLC2^TPR-myc at 44-50 μM were placed in the cell. The Trp-JIP3^LZ was used as the titrant at dimer concentrations of 297-330 μM.”"}, "wild-type KLC2^TPR-myc": {"test_system": "wild-type KLC2^TPR-myc", "experiment": "ITC of Trp-JIP3^LZ or FITC-CSTN-WD2 peptide into wild-type KLC2^TPR-myc", "assay_type": "binding, murine", "details": "n = 2", "description": "as §1\nTo study binding of the Trp-JIP3^LZ and FITC-CSTN-WD2 peptide to wild-type and mutant KLC2^TPR-myc, the recombinant proteins were prepared by size exclusion chromatography in 0.1 M NaCl, 25 mM HEPES, 1 mM TCEP, final pH 7.5. Wild-type or mutant KLC2^TPR-myc at 44-50 μM were placed in the cell. The Trp-JIP3^LZ was used as the titrant at dimer concentrations of 297-330 μM. The FITC-CSTN-WD2 peptide was used as the titrant at a concentration of 380 μM. The peptide concentration was determined by measuring the absorbance at 483 nm and using a molar extinction coefficient of 68,000 M^-1cm^-1. ITC experiments were performed as described above with injections spaced 120-150 s apart. Thermograms were integrated and corrected for heats of dilution using NITPIC (http://biophysics.swmed.edu/MBR/software.html). The resulting isotherms were analysed in SEDPHAT. Data for the Trp-JIP3^LZ as titrant were fitted with the A + B + B → AB + B → ABB model, whilst binding of the FITC-CSTN-WD2 peptide was analysed using the A + B → AB model. Between 2 and 3 experiments were performed for each titrand/titrant pair. For each titrand/titrant pair, the isotherms from the experiments were globally fitted with the relevant model. […] During fitting, the FITC-CSTN-WD2 peptide concentrations consistently refined to values around 30% greater than the measured value of 380 μM, with Napp values around 0.7 (Table S2). We ascribe this to an under-quantification of the FITC-CSTN-WD2 peptide concentration since the peptide contains a single tryptophan-acidic motif, and the concentration values for experiments with Trp-JIP3^LZ as ligand refined close to their measured values."}, "[3]": {"test_system": "KLC2^TPR-myc Thr^200Asp (T200D)", "experiment": "ITC of FITC-CSTN-WD2 peptide into T200D KLC2^TPR-myc", "assay_type": "binding, murine", "details": "25°C, 0.1 M NaCl, n = 3", "excerpt": "as §3\nThe Trp-JIP3^LZ protein used for CD and ITC experiments was prepared as described above for the JIP3^LZ, with the following modifications. […] The Trp-JIP3^LZ and KLC2^TPR-myc samples used in the fluorescence anisotropy-based binding competition assays were prepared as for those used in the CD and ITC studies, but the final size-exclusion step was performed in 100 mM NaCl, 25 mM HEPES, 5mM MgCl2, 1 mM TCEP (final pH 7.5).\nas §2, with “7.5.” for “7.5. Wild-type or mutant KLC2^TPR-myc at 44-50 μM were placed in the cell. The Trp-JIP3^LZ was used as the titrant at dimer concentrations of 297-330 μM.”, “We ascribe this to an under-quantification of the FITC-CSTN-WD2 peptide concentration since the peptide contains a single tryptophan-acidic motif, and the concentration values for experiments with Trp-JIP3^LZ as ligand refined close to their measured values.” left out"}, "[4]": {"details": "25 mM HEPES, 1 mM TCEP, pH 7.5, A + B → AB model, global fit"}, "[5]": {"details": "25°C, 0.1 M NaCl, pH 7.5, global fit"}, "[6]": {"details": "FITC-CSTN-WD2, 25°C, 0.1 M NaCl, pH 7.5, global fit"}}, "note": "No end group written: not given here. *: point of attachment. FITC = O=C1OC2(c3ccc(O)cc3Oc3cc(O)ccc32)c2ccc(NC(=S)*)cc21"}
{"substance": "Ac-GKENEMDWDDSALTITVN [CSTN-WD1]", "values": [{"measurement": "effect on binding of KLC2^TPR-myc to FITC-labeled LFP motif peptide", "setting": "KLC2^TPR-myc", "result": "blocked binding"}]}
{"substance": "{FITC}-TRQLEWDDSTL-OH [FITC-CSTN-WD2, FITC-labeled tryptophan-acidic calsyntenin-1 peptide]", "values": [{"measurement": "K, macroscopic association constant", "setting": "KLC2 L220Y mutant; [4]", "result": 0.739, "unit": "µM⁻¹"}, {"measurement": "-TΔS", "setting": "KLC2 L220Y mutant; pH 7.5, global fit", "result": -4.104, "unit": "kcal/mol"}, {"measurement": "ΔH", "setting": "KLC2 L220Y mutant; pH 7.5, global fit", "result": -3.902, "unit": "kcal/mol"}, {"measurement": "Napp values", "setting": "[1]; FITC-CSTN-WD2, wild-type and mutant KLC2^TPR-myc, ascribed to under-quantification of the peptide concentration", "result": "around 0.7"}, {"measurement": "effect of the three TPR1 mutations on binding", "setting": "[1]; all three mutations in TPR1 of KLC2^TPR-myc, ITC", "result": "only minor effects on binding"}, {"measurement": "K, macroscopic association constant", "setting": "[2]; 25°C, 0.1 M NaCl, 25 mM HEPES, 1 mM TCEP, pH 7.5, A + B → AB model, global fit", "result": 0.541, "unit": "µM⁻¹"}, {"measurement": "-TΔS", "setting": "[2]; [5]", "result": -4.463, "unit": "kcal/mol"}, {"measurement": "ΔH", "setting": "[2]; [5]", "result": -3.358, "unit": "kcal/mol"}, {"measurement": "Napp, apparent binding stoichiometry", "setting": "[2]; mean ± standard deviation", "result": "0.67 ± 0.07"}, {"measurement": "K, macroscopic association constant", "setting": "wild-type KLC2^TPR-myc; FITC-CSTN-WD2, 25°C, 0.1 M NaCl, 25 mM HEPES, 1 mM TCEP, pH 7.5, A + B → AB model, global fit", "result": 0.820, "unit": "µM⁻¹"}, {"measurement": "-TΔS", "setting": "wild-type KLC2^TPR-myc; [6]", "result": -3.762, "unit": "kcal/mol"}, {"measurement": "ΔH", "setting": "wild-type KLC2^TPR-myc; [6]", "result": -4.305, "unit": "kcal/mol"}, {"measurement": "Napp, apparent binding stoichiometry", "setting": "wild-type KLC2^TPR-myc; FITC-CSTN-WD2, mean ± standard deviation", "result": "0.67 ± 0.08"}, {"measurement": "K, macroscopic association constant", "setting": "[3]; [4]", "result": 0.845, "unit": "µM⁻¹"}, {"measurement": "-TΔS", "setting": "[3]; pH 7.5, global fit", "result": -3.911, "unit": "kcal/mol"}, {"measurement": "ΔH", "setting": "[3]; pH 7.5, global fit", "result": -4.174, "unit": "kcal/mol"}]}
